Laboratory results from the NIST ThermoML archive (doi:10.1021/je050294+).

What was measured:
[1] = excess molar enthalpy (molar enthalpy of mixing); xn = mol fraction of the nth substance listed; conditions: 101 kPa, Liquid, Flow calorimetry
[2] = xn = mol fraction of the nth substance listed; conditions: Liquid; for speed of sound: Linear variable-path acoustic interferometer; for mass density: Vibrating tube method

C=C1CCC2CC1C2(C)C (stereo not drawn) [β-pinene] + CCC(C)O
excess molar enthalpy [kcal/mol], [1]
Conditions | 283.15 K | 298.15 K | 313.15 K
x1 = 0.066 | 0.0306 | 0.0413 | 0.0397
x1 = 0.134 | 0.0629 | 0.087 | 0.0968
x1 = 0.259 | 0.111 | 0.152 | 0.179
x1 = 0.38 | 0.143 | 0.196 | 0.234
x1 = 0.489 | 0.164 | 0.223 | 0.2682
x1 = 0.581 | 0.172 | 0.232 | 0.2806
x1 = 0.677 | 0.169 | 0.227 | 0.2768
x1 = 0.765 | 0.155 | 0.208 | 0.257
x1 = 0.845 | 0.131 | 0.177 | 0.223
x1 = 0.927 | 0.0925 | 0.127 | 0.161
x1 = 0.963 | 0.0669 | 0.0903 | 0.112

[2], 101.3 kPa
Conditions | mass density [kg/m3] | speed of sound [m/s]
283.15 K, x1 = 0.0526 | 820.26 | 1271.9
283.15 K, x1 = 0.1031 | 824.88 | 1276.6
283.15 K, x1 = 0.2058 | 833.37 | 1285.1
283.15 K, x1 = 0.3006 | 840.38 | 1292.5
283.15 K, x1 = 0.4019 | 847.14 | 1299.8
283.15 K, x1 = 0.5035 | 853.29 | 1307.2
283.15 K, x1 = 0.6023 | 858.87 | 1314.9
283.15 K, x1 = 0.7047 | 864.32 | 1323.5
283.15 K, x1 = 0.7995 | 869.14 | 1332.4
283.15 K, x1 = 0.8988 | 873.93 | 1342.4
283.15 K, x1 = 0.9401 | 875.92 | 1347
298.15 K, x1 = 0.0522 | 807.98 | 1216.6
298.15 K, x1 = 0.105 | 812.54 | 1220.2
298.15 K, x1 = 0.206 | 820.79 | 1227.3
298.15 K, x1 = 0.3006 | 827.65 | 1233.5
298.15 K, x1 = 0.3995 | 834.25 | 1240
298.15 K, x1 = 0.5017 | 840.58 | 1247.2
298.15 K, x1 = 0.6096 | 846.71 | 1255.5
298.15 K, x1 = 0.7011 | 851.61 | 1263
298.15 K, x1 = 0.8035 | 856.93 | 1272.5
298.15 K, x1 = 0.9067 | 862.02 | 1282.6
298.15 K, x1 = 0.9449 | 863.9 | 1287
313.15 K, x1 = 0.0526 | 794.95 | 1161.7
313.15 K, x1 = 0.0997 | 799.22 | 1164.1
313.15 K, x1 = 0.2028 | 807.25 | 1170.4
313.15 K, x1 = 0.2999 | 814.22 | 1175.7
313.15 K, x1 = 0.4043 | 821.27 | 1182.5
313.15 K, x1 = 0.5088 | 827.69 | 1189.9
313.15 K, x1 = 0.6027 | 833.19 | 1197
313.15 K, x1 = 0.6993 | 838.59 | 1205
313.15 K, x1 = 0.8035 | 844.16 | 1214.6
313.15 K, x1 = 0.896 | 848.93 | 1223.2
313.15 K, x1 = 0.9453 | 851.52 | 1228.7

C=C1CCC2CC1C2(C)C (stereo not drawn) [β-pinene] + CCCCO
excess molar enthalpy [kcal/mol], [1]
Conditions | 283.15 K | 298.15 K | 313.15 K
x1 = 0.066 | 0.0117 | 0.0165 | 0.0213
x1 = 0.134 | 0.0253 | 0.0366 | 0.0468
x1 = 0.259 | 0.0514 | 0.0741 | 0.102
x1 = 0.371 | 0.0724 | 0.102 | 0.137
x1 = 0.489 | 0.0901 | 0.125 | 0.17
x1 = 0.591 | 0.101 | 0.138 | 0.186
x1 = 0.677 | 0.105 | 0.141 | 0.19
x1 = 0.765 | 0.0985 | 0.133 | 0.179
x1 = 0.856 | 0.0846 | 0.114 | 0.153
x1 = 0.927 | 0.0674 | 0.0889 | 0.116
x1 = 0.975 | 0.0435 | 0.0667 | 0.0786

[2], 101 kPa
Conditions | mass density [kg/m3] | speed of sound [m/s]
283.15 K, x1 = 0.0494 | 822.4 | 1295.8
283.15 K, x1 = 0.1023 | 827.32 | 1299.6
283.15 K, x1 = 0.204 | 835.8 | 1305.9
283.15 K, x1 = 0.3052 | 843.23 | 1311.7
283.15 K, x1 = 0.4007 | 849.5 | 1316.8
283.15 K, x1 = 0.5005 | 855.39 | 1321.9
283.15 K, x1 = 0.5929 | – | 1323.6
283.15 K, x1 = 0.695 | 865.44 | 1332
283.15 K, x1 = 0.7975 | 870.17 | 1338.1
283.15 K, x1 = 0.9009 | 874.7 | 1345.2
283.15 K, x1 = 0.9179 | 875.44 | 1347.3
298.15 K, x1 = 0.054 | 811.4 | 1243.7
298.15 K, x1 = 0.1027 | 815.79 | 1246.2
298.15 K, x1 = 0.1893 | 822.86 | 1250.3
298.15 K, x1 = 0.2992 | 830.92 | 1255.2
298.15 K, x1 = 0.4011 | 837.49 | 1259.4
298.15 K, x1 = 0.4987 | 843.18 | 1263.5
298.15 K, x1 = 0.6041 | 848.79 | 1268.1
298.15 K, x1 = 0.6946 | 853.25 | 1272.3
298.15 K, x1 = 0.7745 | 856.95 | 1276.6
298.15 K, x1 = 0.9003 | 862.46 | 1284.6
298.15 K, x1 = 0.9349 | 863.93 | 1287.4
313.15 K, x1 = 0.0493 | 799.21 | 1193.1
313.15 K, x1 = 0.1011 | 803.76 | 1194.6
313.15 K, x1 = 0.1988 | 811.57 | 1197.8
313.15 K, x1 = 0.3012 | 818.82 | 1201
313.15 K, x1 = 0.3998 | 825.01 | 1203.9
313.15 K, x1 = 0.5009 | 830.84 | 1207.3
313.15 K, x1 = 0.6003 | 836.12 | 1211.4
313.15 K, x1 = 0.7062 | 841.36 | 1216.2
313.15 K, x1 = 0.8017 | 845.7 | 1221.1
313.15 K, x1 = 0.8988 | 850.1 | 1227.1
313.15 K, x1 = 0.954 | 852.44 | 1231.4
